Experimental data reported in US10428066B2, “Imidazo[4,5-C]pyridine and pyrrolo[2,3-C]pyridine derivatives as SSAO inhibitors” (PROXIMAGEN, LLC, priority 2013, dated 2019).

Legend:
[1] = biological target: human ether a go-go related gene (hERG) K+ channel (Homo sapiens (Human), UniProt Q12809); assay: hERG assay, IonWorks patch clamp electrophysiology; type: cell-based; settings: Chinese Hamster Lung cell line stably expressing hERG, maximum assay concentration 11 uM
Experimental: Compounds of the invention were tested for inhibition of the human ether a go-go related gene (hERG) K^+ channel using IonWorks patch clamp electrophysiology. 8 Point concentration-response curves were generated on two occasions using 3-fold serial dilutions from the maximum assay concentration (11 uM). Electrophysiological recordings were made from a Chinese Hamster Lung cell line stably expressing the full length hERG channel. Single cell ion currents were measured in the perforated patch clamp configuration (100 ug/mL amphoterocin) at room temperature using an IonWorks Quattro instrument. The internal solution contained 140 mM KCl, 1 mM MgCl2, 1 mM EGTA and 20 mM HEPES and was buffered to pH 7.3. The external solution contained 138 mM NaCl, 2.7 mM KCl, 0.9 mM CaCl2, 0.5 mM MgCl2, 8 mM Na2HPO4 and 1.5 mM KH2PO4, and was buffered to pH 7.3. […] This sequence was repeated 5 times at a frequency of 0.25 Hz. Currents were measured from the tail step at the 5th pulse, and referenced to the holding current. Compounds were incubated for 6-7 min prior to a second measurement of the hERG signal using an identical pulse train. A minimum of 17 cells were required for each plC50 curve fit. A control compound (quinidine) was used (see Table 20 below).

[2] = biological target: purified recombinantly expressed human SSAO (Homo sapiens (Human), UniProt Q16853); assay: SSAO enzyme inhibition assay (HRP-coupled hydrogen peroxide detection or 14C-benzaldehyde detection, benzylamine substrate); type: biochemical; settings: human recombinant SSAO, RT
purified recombinantly expressed human SSAO, sequence (Q16853 29-763): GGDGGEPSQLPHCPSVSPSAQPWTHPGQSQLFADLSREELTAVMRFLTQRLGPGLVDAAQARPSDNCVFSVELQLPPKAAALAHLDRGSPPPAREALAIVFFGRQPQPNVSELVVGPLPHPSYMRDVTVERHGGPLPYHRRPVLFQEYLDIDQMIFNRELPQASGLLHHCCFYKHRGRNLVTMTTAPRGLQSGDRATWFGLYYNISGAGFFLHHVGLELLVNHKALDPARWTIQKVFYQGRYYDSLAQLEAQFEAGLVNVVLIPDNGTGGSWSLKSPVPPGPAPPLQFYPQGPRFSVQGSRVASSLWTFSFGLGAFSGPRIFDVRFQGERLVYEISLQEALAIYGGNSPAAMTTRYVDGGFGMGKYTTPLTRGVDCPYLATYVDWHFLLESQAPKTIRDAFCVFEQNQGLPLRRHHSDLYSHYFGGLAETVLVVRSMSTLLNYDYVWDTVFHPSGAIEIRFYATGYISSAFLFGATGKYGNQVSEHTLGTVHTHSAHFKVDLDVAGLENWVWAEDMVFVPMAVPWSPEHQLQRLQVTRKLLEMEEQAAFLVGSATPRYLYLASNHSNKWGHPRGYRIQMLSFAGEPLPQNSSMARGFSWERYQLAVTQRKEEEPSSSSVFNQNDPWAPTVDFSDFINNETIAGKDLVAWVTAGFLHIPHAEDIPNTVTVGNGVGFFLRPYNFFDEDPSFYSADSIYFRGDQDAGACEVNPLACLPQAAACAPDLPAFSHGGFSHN
Experimental: All primary assays were performed at RT. with purified recombinantly expressed human SSAO. Enzyme was prepared essentially as described in Öhman et al. (Protein Expression and Purification 46 (2006) 321-331). In addition, secondary- and selectivity assays were performed using SSAO prepared from various tissues or purified rat recombinant SSAO. The enzyme activity was assayed with benzylamine as substrate by measuring either benzaldehyde production, using ^14C-labeled substrate, or by utilizing the production of hydrogen peroxide in a horseradish peroxidase (HRP) coupled reaction. Briefly, test compounds were dissolved in dimethyl sulfoxide (DMSO) to a concentration of 10 mM. Dose-response measurements were assayed by either creating 1:10 serial dilutions in DMSO to produce a 7 point curve or by making 1:3 serial dilutions in DMSO to produce 11 point curves.
In a horseradish peroxidase (HRP) coupled reaction, hydrogen peroxide oxidation of 10-acetyl-3,7-dihydroxyphenoxazine produced resorufin, which is a highly fluorescent compound (Zhout and Panchuk-Voloshina. Analytical Biochemistry 253 (1997) 169-174; Amplex® Red Hydrogen Peroxide/peroxidase Assay kit, Invitrogen A22188). Enzyme and compounds in 50 mM sodium phosphate, pH 7.4 were set to pre-incubate in flat-bottomed microtiter plates for approximately 15 min before initiating the reaction by addition of a mixture of HRP, benzylamine and Amplex reagent. Benzylamine concentration was fixed at a concentration corresponding to the Michaelis constant, determined using standard procedures. Fluorescence intensity was then measured at several time points during 1-2 h, exciting at 544 nm and reading the emission at 590 nm. For the human SSAO assay final concentrations of the reagents in the assay wells were: SSAO enzyme 1 ug/ml, benzylamine 100 uM, Amplex reagent 20 uM, HRP 0.1 U/mL and varying concentrations of test compound. The inhibition was measured as % decrease of the signal compared to a control without inhibitor (only diluted DMSO). The background signal from a sample containing no SSAO enzyme was subtracted from all data points. Data was fitted to a four parameter logistic model and IC50 values were calculated using the GraphPad Prism 4 or XLfit 4 programs.
SSAO activity was assayed using 14C-labeled benzylamine and analysed by measuring radioactive benzaldehyde. In a white 96-well optiplate (Packard), 20 uL of diluted test compound was pre-incubated at room temperature with 20 uL SSAO enzyme for approximately 15 min with continuous agitation. All dilutions were made with PBS. The reaction was initiated by adding 20 uL of the benzylamine substrate solution containing [7-14C] Benzylamine hydrochloride (CFA589, GE Healthcare). The plate was incubated for 1 h as above after which the reaction was stopped by acidification (10 uL 1M aq HCl). Then 90 uL Micro Scint-E solution (Perkin-Elmer) was added to each well and the plate was continuously mixed for 15 min. Phase separation occurred instantly and activity was read in a Topcount scintillation counter (Perkin-Elmer). In the final reaction well, the human recombinant SSAO concentration was 10 ug/ml. In order to optimize sensitivity, the substrate concentration was decreased as compared to the HRP coupled assay in order to get a higher fraction of radioactive product. In the human SSAO assay, benzylamine concentration was 40 uM (0.2 uCi/mL). Data was analysed as above.

human ether a go-go related gene (hERG) K+ channel, sequence (Q12809 whole entry): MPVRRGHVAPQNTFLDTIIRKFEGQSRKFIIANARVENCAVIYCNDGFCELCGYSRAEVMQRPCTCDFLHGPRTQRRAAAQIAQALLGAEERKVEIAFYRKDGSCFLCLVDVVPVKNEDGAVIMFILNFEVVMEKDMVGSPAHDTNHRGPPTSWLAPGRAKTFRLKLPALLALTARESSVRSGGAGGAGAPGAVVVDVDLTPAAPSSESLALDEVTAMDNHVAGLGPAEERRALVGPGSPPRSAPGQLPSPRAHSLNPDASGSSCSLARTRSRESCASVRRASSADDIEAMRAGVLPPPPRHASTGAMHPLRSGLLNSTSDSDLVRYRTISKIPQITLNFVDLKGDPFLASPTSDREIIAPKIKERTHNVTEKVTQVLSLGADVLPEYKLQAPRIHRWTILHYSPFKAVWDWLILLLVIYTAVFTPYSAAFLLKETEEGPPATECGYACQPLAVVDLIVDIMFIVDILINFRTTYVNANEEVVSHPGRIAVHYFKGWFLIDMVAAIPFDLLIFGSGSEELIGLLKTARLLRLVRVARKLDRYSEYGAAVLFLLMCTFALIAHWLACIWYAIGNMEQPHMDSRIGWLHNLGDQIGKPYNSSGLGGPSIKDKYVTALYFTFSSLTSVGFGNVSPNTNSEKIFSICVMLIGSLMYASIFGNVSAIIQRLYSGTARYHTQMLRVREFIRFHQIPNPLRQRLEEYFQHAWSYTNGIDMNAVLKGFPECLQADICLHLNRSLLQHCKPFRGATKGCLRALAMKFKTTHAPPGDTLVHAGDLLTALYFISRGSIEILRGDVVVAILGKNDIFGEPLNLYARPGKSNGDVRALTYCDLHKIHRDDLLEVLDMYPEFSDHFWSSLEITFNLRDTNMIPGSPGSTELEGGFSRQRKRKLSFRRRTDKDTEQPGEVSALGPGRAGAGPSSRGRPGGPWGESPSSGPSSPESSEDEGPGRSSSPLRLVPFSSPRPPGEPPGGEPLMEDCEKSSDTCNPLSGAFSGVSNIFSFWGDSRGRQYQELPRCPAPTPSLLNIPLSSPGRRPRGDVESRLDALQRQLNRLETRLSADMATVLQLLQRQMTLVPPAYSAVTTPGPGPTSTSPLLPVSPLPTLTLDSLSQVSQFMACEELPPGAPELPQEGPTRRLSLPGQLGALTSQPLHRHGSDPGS

| Compound | IC50 [1] [µM] | IC50 [2] [µM] |
| --- | --- | --- |
| Clc1ccc(-n2c(-c3ccc(N4CCOCC4)nn3)nc3ccncc32)cc1 [Example 4, 4-{6-[3-(4-Chlorophenyl)-3H-imidazo[4,5-c]pyridin-2-yl]pyridazin-3-yl}morpholine] | 1 to 10 |  |
| Clc1ccc(-n2c(-c3ccc(N4CCOCC4)nc3)nc3ccncc32)cc1 [Example 47, 4-{5-[3-(4-Chlorophenyl)-3H-imidazo[4,5-c]pyridin-2-yl]pyridin-2-yl}morpholine] | 1 to 10 |  |
| Clc1ccc(-n2c(-c3cnc(N4CCOCC4)nc3)nc3ccncc32)cc1 [Example 51, 4-{5-[3-(4-Chlorophenyl)-3H-imidazo[4,5-c]pyridin-2-yl]pyrimidin-2-yl}morpholine] | 1 to 10 |  |
| Cc1ccc(-n2c(-c3ccc(N4CCOCC4)nc3)nc3ccncc32)c(F)c1 [Example 67, 4-{5-[3-(2-Fluoro-4-methylphenyl)-3H-imidazo[4,5-c]pyridin-2-yl]pyridin-2-yl}morpholine] | 1 to 10 |  |
| CS(=O)(=O)NC1CCN(c2ccc(-c3nc4ccncc4n3-c3ccc(Cl)cc3)cn2)CC1 [Example 88, N-(1-{5-[3-(4-Chlorophenyl)-3H-imidazo[4,5-c]pyridin-2-yl]pyridin-2-yl}piperidin-4-yl)methanesulfonamide] | 1 to 10 |  |
| Cc1ccc(-n2c(-c3cnc(NC4CCOCC4)nc3)nc3ccncc32)cc1 [Example 119, 5-[3-(4-Methylphenyl)-3H-imidazo[4,5-c]pyridin-2-yl]-N-(oxan-4-yl)pyrimidin-2-amine; bis(trifluoroacetic acid)] |  | 0.05 to 0.2 |
| Clc1ccc(-n2c(-c3ccncc3)cc3ccncc32)cc1 [Example 120, 4-[1-(4-Chlorophenyl)-1H-pyrrolo[2,3-c]pyridin-2-yl]pyridine] | 1 to 10 | 0.2 to 1.2 |
| Clc1ccc(-n2c(-c3cccnc3)cc3ccncc32)cc1 [Example 122, 3-[1-(4-Chlorophenyl)-1H-pyrrolo[2,3-c]pyridin-2-yl]pyridine] | 1 to 10 | 0.05 to 0.2 |
| CN1CCN(C(=O)c2ccc(-c3cc4ccncc4n3-c3ccc(Cl)cc3)cc2)CC1 [Example 125, 1-({4-[1-(4-Chlorophenyl)-1H-pyrrolo[2,3-c]pyridin-2-yl]phenyl}carbonyl)-4-methylpiperazine] |  | 0.2 to 1.2 |
| Clc1ccc(-n2c(-c3cnc(N4CCOCC4)nc3)cc3ccncc32)cc1 [Example 127, 4-{5-[1-(4-Chlorophenyl)-1H-pyrrolo[2,3-c]pyridin-2-yl]pyrimidin-2-yl}morpholine] | 0.1 to 1 |  |
| Cc1ccc(-n2c(-c3cnc(N4CCOCC4)nc3)cc3ccncc32)cc1 [Example 130, 4-{5-[1-(4-Methylphenyl)-1H-pyrrolo[2,3-c]pyridin-2-yl]pyrimidin-2-yl}morpholine] |  | 0.05 to 0.2 |
| c1ccc(-n2c(-c3cnc(N4CCOCC4)nc3)cc3ccncc32)cc1 [Example 131, 4-(5-{1-Phenyl-1H-pyrrolo[2,3-c]pyridin-2-yl}pyrimidin-2-yl)morpholine] | 1 to 10 | 0.2 to 1.2 |
| O=c1cc(-c2cc3ccncc3n2-c2ccc(Cl)cc2)ccn1C1CC1 [Example 138, 4-[1-(4-Chlorophenyl)-1H-pyrrolo[2,3-c]pyridin-2-yl]-1-cyclopropyl-1,2-dihydropyridin-2-one] | 1 to 10 |  |
| Clc1ccc(-n2c(-c3cnc(NC4CCOCC4)nc3)cc3ccncc32)cc1 [Example 139, 5-[1-(4-Chlorophenyl)-1H-pyrrolo[2,3-c]pyridin-2-yl]-N-(oxan-4-yl)pyrimidin-2-amine] | 0.1 to 1 |  |
| Clc1ccc(-n2c(-c3ccc(CN4CCOCC4)nc3)cc3ccncc32)cc1 [Example 140, 4-({5-[1-(4-Chlorophenyl)-1H-pyrrolo[2,3-c]pyridin-2-yl]pyridin-2-yl}methyl)morpholine] | 1 to 10 |  |
| O=c1cc(-c2cc3ccncc3n2-c2ccc(Cl)cc2)cc[nH]1 [Example 142, 4-[1-(4-Chlorophenyl)-1H-pyrrolo[2,3-c]pyridin-2-yl]-1,2-dihydropyridin-2-one] | 1 to 10 | 0.05 to 0.2 |
| CCn1ccc(-c2cc3ccncc3n2-c2ccc(Cl)cc2)cc1=O [Example 144, 4-[1-(4-Chlorophenyl)-1H-pyrrolo[2,3-c]pyridin-2-yl]-1-ethyl-1,2-dihydropyridin-2-one] |  | 0.05 to 0.2 |
| O=c1cc(-c2cc3ccncc3n2-c2ccc(Cl)cc2)cn[nH]1 [Example 146, 5-[1-(4-Chlorophenyl)-1H-pyrrolo[2,3-c]pyridin-2-yl]-2,3-dihydropyridazin-3-one] |  | 0.05 to 0.2 |
| Nc1cc(-c2cc3ccncc3n2-c2ccc(Cl)cc2)ccn1 [Example 147, 4-[1-(4-Chlorophenyl)-1H-pyrrolo[2,3-c]pyridin-2-yl]pyridin-2-amine] | 1 to 10 |  |
| Clc1ccc(-n2c(-c3cncc(Cl)c3)cc3ccncc32)cc1 [Example 150, 3-Chloro-5-[1-(4-chlorophenyl)-1H-pyrrolo[2,3-c]pyridin-2-yl]pyridine] |  | 0.05 to 0.2 |
| Clc1ccc(-n2c(-c3ccc(-n4cccn4)nc3)cc3ccncc32)cc1 [Example 151, 5-[1-(4-Chlorophenyl)-1H-pyrrolo[2,3-c]pyridin-2-yl]-2-(1H-pyrazol-1-yl)pyridine; bis(trifluoroacetic acid)] |  | 0.05 to 0.2 |
| Fc1cnccc1-c1cc2ccncc2n1-c1ccc(Cl)cc1 [Example 152, 4-[1-(4-Chlorophenyl)-1H-pyrrolo[2,3-c]pyridin-2-yl]-3-fluoropyridine] | 1 to 10 | 0.2 to 1.2 |
| Clc1ccc(-n2c(-c3ccncc3Cl)cc3ccncc32)cc1 [Example 153, 3-Chloro-4-[1-(4-chlorophenyl)-1H-pyrrolo[2,3-c]pyridin-2-yl]pyridine] | 1 to 10 | 0.05 to 0.2 |
